Where two headings read alike, the source gives them in different places.
Key:
[1] = Plasma analysis and pharmacokinetics in Gottingen minipigs after intranasal administration (Example 4); conditions: for bioavailability: Bioavailability (0-tlast), intranasal, minipig No. 2; for Cmax: Cmax of Remimazolam
Gottingen minipigs [2] = test: Sedative effect score in Gottingen minipigs after single intranasal administration (Example 4); format: in vivo, minipig
Gottingen minipigs [3] = test: Systemic and local tolerability (clinical signs, rhinoscopy, NOAEL) in Gottingen minipigs, single intranasal administration (Example 4); conditions: minipigs
[4] = as above; conditions: female, Gottingen, minipig, in vivo, inhaled or intranasal, 25 mg/animal
[5] = Plasma levels of Remimazolam and its main metabolite CNS7054 in rats (Example 1)
male rats [6] = test: Clinical observations in rats after intranasal or IV remimazolam (Example 1); format: in vivo, rat; conditions: intranasal dosing
male rats [7] = test: Tolerability in rats: mortality, body weight, Irwin observations, body temperature, pupil size, gross pathology (Example 1)
[8] = study 32236, female minipigs, intravenous infusion 120 mg/kg; cited from earlier work
[9] = study Y08AG004, micropigs, cited from earlier work
[10] = Solubility of remimazolam in inhalation vehicle (Example 2); conditions: concentrations >25 mg/mL
[11] = minipig animal no. 2, intranasal 25 mg
[12] = intranasal 25 mg Remimazolam/animal

For `Cc1cnc2n1-c1ccc(Br)cc1C(c1ccccn1)=N[C@H]2CCC(=O)O` [CNS7054], the “tmax of the metabolite (CNS7054)” value ([1]; minipig animal no. 2, intranasal 25 mg Remimazolam) was 15 min, the “tmax of the metabolite (CNS7054)” value ([1]; minipig animal nos. 1 and 3, intranasal 25 mg Remimazolam) was 60 min and the “Plasma level of metabolite CNS7054, GLP-validated method” value ([1]; minipigs, intranasal 25 mg Remimazolam, below LLOQ) was < 100 ng/mL.

In the case of `COC(=O)CC[C@@H]1N=C(c2ccccn2)c2cc(Br)ccc2-n2c(C)cnc21` [Remimazolam, methyl 3-[(4S)-8-bromo-1-methyl-6-(pyridin-2-yl)-4H-imidazo[1,2-a][1,4]benzodiazepin-4-yl]propanoate], the “Sedative effects lasting up to” value (Gottingen minipigs [2]; [11]) is reported as “up to 30 minutes”, the “Start of sedative effects after administration” value (Gottingen minipigs [2]; [11]) is reported as 5 min and the “Time of maximum sedative effect” value (Gottingen minipigs [2]; [11]) is reported as 10 minutes p.a. The Sedative effect (Gottingen minipigs [2]; minipig animal nos. 1 and 3, intranasal 25 mg, scores of zero recorded) was “not affected”, the “NOAEL for local tolerability (nasal mucosa)” value (Gottingen minipigs [3]; dry drug product powder into one nostril) was ≥ 25 mg/animal and the Body weight (Gottingen minipigs [3]; [12]) was “No test item-related influence on the body weight was observed”. The Clinical signs (Gottingen minipigs [3]; [12]) was “No test item-related changes in behavior (except for sedation, see below) or external appearance were observed”, the “Food and drinking water consumption” value (Gottingen minipigs [3]; [12]) was “No test item-related influence was noted” and the Mortality (Gottingen minipigs [3]; [12]) was “None of the animals died”. For the same compound, the “Rhinoscopy: changes of the nasal mucosa (erythema, eschar or oedema formation)” value (Gottingen minipigs [3]; nasal 25 mg Remimazolam/animal) was “No test item-related changes of the nasal mucosa”, the NOAEL [4] was ≥ 1.25 mg/kg and the “Systemic exposure following intranasal administration” value [5] was “systemically exposed”. The “Time clinical observations were present following dosing” value (male rats [6]) was “up to 15 min”, the AUC(0-t) ([1]; female, Gottingen, minipig, plasma, inhaled or intranasal, 1.25 mg/kg, AUC0-last, present study (33659), minipig No. 2 (bw 20 kg), intranasal 1.25 mg/kg) was 19.9 ng·h/mL and the bioavailability ([1]; female, Gottingen, minipig, plasma, inhaled or intranasal, 1.25 mg/kg, reference Y08AG004 bolus (micropigs)) was 5.43%. For the same compound, the bioavailability ([1]; female, Gottingen, minipig, plasma, inhaled or intranasal, 1.25 mg/kg, reference Y08AG004 infusion (micropigs)) was 5.63%, the Tmax ([1]; female, Gottingen, minipig, plasma, inhaled or intranasal, 25 mg) was 15 min and the AUC(0-t) ([1]; female, Gottingen, minipig, plasma, inhaled or intranasal, 25 mg, AUC0->last of Remimazolam, minipig animal no. 2, intranasal 25 mg) was ~20 ng·h/mL. For the same compound, the AUC(0-t) ([1]; female, Gottingen, minipig, plasma, inhaled or intranasal, 25 mg, AUC0->last of Remimazolam, minipig animal no. 3, intranasal 25 mg) was 7 ng·h/mL, the Cmax ([1]; female, Gottingen, minipig, plasma, inhaled or intranasal, 25 mg, minipig animal no. 1, intranasal 25 mg, extrapolated below LLOQ) was 17.4 ng/mL and the Cmax ([1]; female, Gottingen, minipig, plasma, inhaled or intranasal, 25 mg, minipig animal no. 2, intranasal 25 mg, within GLP-validated range) was 50.4 ng/mL. The Cmax ([1]; female, Gottingen, minipig, plasma, inhaled or intranasal, 25 mg, minipig animal no. 3, intranasal 25 mg, extrapolated below LLOQ) was ≤ 8.6 ng/mL, the bioavailability ([1]; female, Gottingen, minipig, plasma, other: intranasal, 1.25 mg/kg, reference study 32236 (IV infusion, minipigs)) was 10.5% and the concentration at 0.25 h ([1]; female, Gottingen, minipig, plasma, other: intranasal, 25 mg/animal) was 50.4 ng/mL. For the same compound, the bioavailability ([1]; female, Gottingen, minipig, plasma, other: intranasal, 25 mg/animal, reference study 32236 (IV infusion, minipigs)) was 10%, the “Plasma level of Remimazolam (CNS7056), GLP-validated method” value ([1]; minipigs, intranasal 25 mg, all samples except animal no. 2 at 0.25 hours p.a., below LLOQ) was < 20 ng/mL and the AUC0-last/Dose ([1]; present study (33659), minipig No. 2, intranasal 1.25 mg/kg) was 15.94^1 ng*h*kg/ml/mg. For the same compound, the Gross pathology (male rats [7]; male rats, Part B necropsy) was “No test item-related gross findings were noted”, the “Tolerability of intranasal administration” value (male rats [7]; rats) was “well tolerated” and the AUC0-last [8] was 18215.23 ng·h/mL. The AUC0-last/Dose [8] was 151.79 ng·kg·h/mL/mg, the “AUC0-last (data are for 0→∞)” value ([9]; intravenous bolus 1 mg/kg) was 293.3^2 ng*h/ml and the “AUC0-last/Dose (data are for 0→∞)” value ([9]; intravenous bolus 1 mg/kg) was 293.3^2 ng*h*kg/ml/mg. The “AUC0-last (data are for 0→∞)” value ([9]; intravenous infusion 2.4 mg/kg) was 676.7^2 ng*h/ml, the “AUC0-last/Dose (data are for 0→∞)” value ([9]; intravenous infusion 2.4 mg/kg) was 282.9^2 ng*h*kg/ml/mg and the “Solubility in a reasonable inhalation vehicle” value [10] was “could not be tested due to lack of solubility in a reasonable vehicle”.
